Results taken from patent publication US5430023A, “Tripeptide antithrombotic agents” (Eli Lilly and Company, priority 1993, dated 1995).
Several values for one entry are separate records, joined by “and”; a condition that tells them apart may be missing. Identical values can stand only once. Counter-ions that a name gives are not always drawn. Square brackets hold non-standard residues; d marks the D form. Peptide text beside a SMILES is read from it. * marks the point of attachment. dPhg = N[C@@H](C(=O)O)c1ccccc1; Boc = CC(C)(C)OC(=O)*

Experiments:
human thrombin = target: T1, human thrombin (Homo sapiens, UniProt P00734); experiment: Inhibition of thrombin amidase activity (chromogenic substrate), human thrombin; type: biochemical; conditions: human thrombin (footnote 2)
T1 construct: purchased Inzyme Research Laboratories of South Bend, Ind
Protocol: The compounds provided by the invention (formula 1) inhibit the action of thrombin in man and animals. […] The following Table 1 lists the apparent equilibrium constant (Kass) for interaction between the test compound (inhibitor) and thrombin. The data in the table were obtained in an assay in which thrombin hydrolyzes the chromogenic substrate, N-benzoyl-D-phenylalanyl-L-valyl-L-arginyl-p-nitroanilide.
The assay was carried out in 50 μl buffer (0.03M Tris, 0.15M NaCl, pH 7.4) with 25 μl of bovine thrombin solution (0.21 mg/ml of thrombostat powder in 0.06M Tris, 0.3M NaCl, pH 7.4) and 150 μl of an aqueous solution of the chromogenic substrate at a concentration of 0.25 mg/ml. Solutions of test compound (25 μl) at various concentrations were added. Rates of hydrolysis of the substrate were measured by monitoring the reactions at 405 nm for the release of p-nitroaniline. […] The bound thrombin (bound to test compound) was calculated by subtracting the amount of free thrombin observed in each assay from the known initial amount of thrombin used in the assay. The amount of free inhibitor in each assay was calculated by subtracting the number of moles of bound thrombin from the number of moles of added inhibitor (test compound). […]
(§1) Kass was calculated for a range of concentrations of compounds and the mean value is reported in units of liter per mole.

bovine thrombin [1] = target: T2, bovine thrombin (Bos taurus, UniProt P00735); experiment: Inhibition of thrombin amidase activity (chromogenic substrate), bovine thrombin; type: biochemical; conditions: apparent equilibrium constant inhibitor-thrombin, mean over a range of concentrations
T2 construct: 25 μl of bovine thrombin solution (0.21 mg/ml of thrombostat powder); purchased thrombostat powder
Protocol: The data in the table were obtained in an assay in which thrombin hydrolyzes the chromogenic substrate, N-benzoyl-D-phenylalanyl-L-valyl-L-arginyl-p-nitroanilide.
The assay was carried out in 50 μl buffer (0.03M Tris, 0.15M NaCl, pH 7.4) with 25 μl of bovine thrombin solution (0.21 mg/ml of thrombostat powder in 0.06M Tris, 0.3M NaCl, pH 7.4) and 150 μl of an aqueous solution of the chromogenic substrate at a concentration of 0.25 mg/ml. Solutions of test compound (25 μl) at various concentrations were added. […] Standard curves were constructed by plotting free thrombin concentration against hydrolysis rate. […] The amount of free inhibitor in each assay was calculated by subtracting the number of moles of bound thrombin from the number of moles of added inhibitor (test compound).
as §1

[2] = test system: plasma coagulation (thromboplastin); experiment: Plasma coagulation assay: prothrombin time; type: biochemical
Protocol: The numerical values in the table are the concentrations of the test compounds (ng/ml) required to prolong coagulation by 2-fold in the three tests. The thrombin time evaluation was carried out in plasma and separately determined in a buffer system at pH 7.5.
(§2) The data presented in Table 2 were obtained using a CoaScreener instrument from Tecan, Inc. in the assay protocols listed below.
50 μl thromboplastin (Dade)

[3] = test system: plasma coagulation (Actin, CaCl2); experiment: Plasma coagulation assay: APTT (activated partial thromboplastin time); type: biochemical
Protocol: (§3) The anticoagulant activity of the compounds of the invention has been determined in standard tests. The following Table 2 presents the data obtained with representative compounds of the invention in tests used to determine prothrombin time, thrombin time and activated partial thromboplastin time (APTT). The numerical values in the table are the concentrations of the test compounds (ng/ml) required to prolong coagulation by 2-fold in the three tests. The thrombin time evaluation was carried out in plasma and separately determined in a buffer system at pH 7.5.
as §2

bovine thrombin [4] = target: T2, bovine thrombin; experiment: Plasma coagulation assay: thrombin time; type: biochemical
Protocol: as §3, §2
50 μl bovine thrombin (2 NIH

bovine thrombin [5] = target: T2, bovine thrombin; experiment: Thrombin time in buffer (fibrinogen instead of plasma); type: biochemical; conditions: Buffer (pH 7.5)
Protocol: as §3, §2
In the Thrombin Time determined in pH 7.4 buffer fibrinogen was used instead of plasma.

[6] = test system: arterial thrombosis in the carotid artery; experiment: Ferric chloride induced arterial thrombosis in the carotid artery of the rat; type: in vivo; conditions: infusion from 15 min before to 60 min after FeCl3, NA = Not active at 4 mg/kg/h or at 7 mg/kg/h, the highest doses tested
Protocol: The antithrombotic activity of representative compounds of the invention was determined in in vivo tests carried out in the rat. The test employed induced arterial thrombosis in the carotid artery of the rat and measured the infusion dose of test compound required to maintain blood flow for fifty minutes past the time of occlusion. The test was performed as follows.
Arterial thrombosis was induced in the rat by injury of the carotid artery. Topical application of a ferric chloride solution was used to injure the vessel. Male Sprague-Dawley rats (375-450 g) were anesthetized with xylazine (20 mg/kg, s.c.) followed by ketamine HCl (100 mg/kg, s.c.). Animals were laid on a water blanket in which the circulated water was maintained at 37° C. The carotid artery was approached through a midline cervical incision. Careful blunt dissection was used to expose and isolate the vessel from the carotid sheath. A silk suture was pulled underneath the artery to lift the vessel to provide clearance to insert a thermocouple underneath it. […] Small forceps were used to dip discs (3 mm dia) of Whatman No. 1 filter paper into a FeCl3 solution (35%). The discs were cut to equal size using sharpened stainless steel tubing (3 mm i.d.) chucked in a drill press. A saturated disc was placed on each carotid artery above the thermocouple. The time between FeCl3 application and the time at which temperature decreased abruptly was recorded as time to occlusion (TTO) of the vessel. The average time required for both vessels to occlude was used to represent TTO for each animal.
Test compounds were dissolved in isotonic saline. […]
The association between vessel occlusion and the abrupt temperature decrease was established by simultaneously recording the temperature and blood flow on the same recorder. […] Baseline temperature and flow velocity (determined with a Directional Pulsed Doppler Flowmeter, Model 545-C, University of Iowa Bioengineering) were recorded before application of 35% ferric chloride. […]

| Compound | Thrombin Amidase Kass × 10^6 (human thrombin) | Thrombin Amidase Kass × 10^6 (bovine thrombin [1]; diacetate salt) | Prothrombin Time: concentration required to prolong coagulation by 2fold [2] [ng/mL] | APTT: concentration required to prolong coagulation by 2fold [3] [ng/mL] | Thrombin Time: concentration required to prolong coagulation by 2fold (bovine thrombin [4]) [ng/mL] | Thrombin Time: concentration required to prolong coagulation by 2fold (bovine thrombin [5]) [ng/mL] | ED50: infusion dose required to maintain blood flow for 50 min [6] [mg/kg/h] | Thrombin Amidase Kass × 10^6 (bovine thrombin [1]) |
| --- | --- | --- | --- | --- | --- | --- | --- | --- |
| N=C(N)NCCCC(C=O)NC(=O)C1CCCN1C(=O)C1CC2CCCCC2CN1 [D-3-(4aS, 8aS)-Piq-(L)-Pro-(L)-Arg-H] | 56 × 10^6 1/mole |  |  |  |  |  |  |  |
| D-3 -(4aR, 8aR)-Piq-(L)-Pro-(L)-Arg-H | 214 × 10^6 1/mole |  |  |  |  |  |  |  |
| CC(C)(C)OC(=O)N[C@@H](C(=O)N1CCC[C@H]1C(=O)N[C@H](C=O)CCCNC(=N)N)c1ccccc1 [Boc-D-phenylglycyl, N-(t-Butyloxycarbonyl)-D-phenylglycyl-L-Prolyl-L-Arginine aldehyde (Boc-D-Phg-Pro-Arg-H) diacetate salt] (Boc-[dPhg]-Pro-Arg-aldehyde) |  | 88 × 10^6 1/mole and 73 × 10^6 1/mole | 667 | 1169 | 110 | 118 | 2.9 |  |
| CC(C)(C)OC(=O)NC(C(=O)N1CCC[C@H]1C(=O)N[C@H](C=O)CCCNC(=N)N)c1cccc2ccccc12 (mixture of isomers) [Boc-DL-1-naphthylglycyl] |  |  | 1136 | 2272 | 320 | 112 | 5.5 | 18 × 10^6 1/mole |
| CC(=O)O.CC(=O)O.CC(C)(C)OC(=O)N[C@@H](C(=O)N1CCC[C@H]1C(=O)N[C@H](C=O)CCCNC(=N)N)c1cccc2ccccc12 [Boc-D-1-naphthylglycyl, N-Boc-D-1-naphthylglycyl-Pro-Arg-H diacetate] |  |  | 1225 | 3100 | 230 | 105 | 6.4 | 52 × 10^6 1/mole |
